Some test systems named below: UO-31 renal; MOLT-4 leukemia; K-562 leukemia; MALME-3M melanoma; OVCAR-4 ovarian; A498 renal; SR leukemia; SNB-19 CNS; MDA-MB-231 breast; UACC-62 melanoma.
What all share (assay): NCI anticancer screen, dose series, 48 h

Structures are written as SMILES.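 Each compound was tested at five concentrations against cells in 96-well plates for 48 hours. TGI is the concentration that stops growth completely.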 Where only a bound is given, the exact number is not on record here.

As to `CCOC(=O)Oc1ccc2c(c1)c(=O)c1c(NCCN(CC)CC)ccc3nnn2c31`, the TGI in the assay with UO-31 renal is 1.24 µM; with MOLT-4 leukemia, 13.6 µM; in the assay with K-562 leukemia, greater than 36.3 µM; with MALME-3M melanoma, 22 µM; with OVCAR-4 ovarian, 11.9 µM; in the assay with A498 renal it was 21.5 µM. Moreover, the TGI with SR leukemia amounted to 12.9 µM; in the assay with SNB-19 CNS, 15.9 µM; in the assay with MDA-MB-231 breast, 17.6 µM; with UACC-62 melanoma, 24.3 µM.
With `COc1ccc(C(C2=C(O)COC2=O)c2cc3c(cc2O)OCO3)cc1OC` (stereo not given), the TGI in the assay with UO-31 renal, in the assay with MOLT-4 leukemia, in the assay with K-562 leukemia, in the assay with MALME-3M melanoma, with OVCAR-4 ovarian and with A498 renal was greater than 100 µM throughout. Besides, the TGI with SR leukemia, in the assay with SNB-19 CNS, in the assay with MDA-MB-231 breast and in the assay on UACC-62 melanoma was greater than 100 µM in each case.
`Cn1c(N/N=C/c2ccccc2)nc(-c2ccc([N+](=O)[O-])cc2)c(C#N)c1=O`: the TGI with UO-31 renal, with MOLT-4 leukemia, in the assay with K-562 leukemia, in the assay with MALME-3M melanoma, in the assay on OVCAR-4 ovarian and with A498 renal was greater than 100 µM in each case. For the same molecule, the TGI in the assay with SR leukemia is greater than 100 µM; in the assay with SNB-19 CNS it was greater than 100 µM; in the assay with MDA-MB-231 breast it was 86.7 µM; with UACC-62 melanoma, 97.5 µM.
Consider `CCn1c(SCC(=O)NNC(=S)NC)nc2ccccc2c1=O`, for which the TGI in the assay on UO-31 renal, with MOLT-4 leukemia, in the assay on K-562 leukemia, with MALME-3M melanoma, in the assay with OVCAR-4 ovarian and in the assay on A498 renal was greater than 100 µM throughout. Moreover, the TGI in the assay on SR leukemia, in the assay on SNB-19 CNS, with MDA-MB-231 breast and with UACC-62 melanoma was greater than 100 µM each time.
For the molecule `CCc1nc2ccc(NCCN(C)C)c3c(=O)c4ccccc4n1c23`, the TGI is 10 µM in the assay on UO-31 renal; 6.28 µM with MOLT-4 leukemia; 22 µM in the assay with K-562 leukemia; 7.47 µM in the assay with MALME-3M melanoma; 4.35 µM in the assay on OVCAR-4 ovarian; 11 µM in the assay with A498 renal. For the same molecule, the TGI with SR leukemia came to 7.66 µM; in the assay on SNB-19 CNS, 16.5 µM; in the assay on MDA-MB-231 breast, 2.36 µM; in the assay with UACC-62 melanoma it was 8.06 µM.
`C/C1=C\C=C(\C(C)C)CC/C(C(=O)O)=C\CC/C(C)=C/CC1`: the TGI with UO-31 renal is 53.8 µM; with MOLT-4 leukemia, 43.2 µM; in the assay with K-562 leukemia it was 74.8 µM; in the assay on MALME-3M melanoma, 52.2 µM; in the assay with OVCAR-4 ovarian, greater than 100 µM; in the assay with A498 renal, 34.1 µM. For the same molecule, the TGI is 38.6 µM in the assay on SR leukemia, 51.2 µM with SNB-19 CNS, 39.2 µM in the assay on MDA-MB-231 breast and 25.8 µM in the assay on UACC-62 melanoma.
Regarding `CC(=O)N(O)c1ccc(-c2nc3ccccc3s2)cc1`, the TGI in the assay with UO-31 renal was greater than 100 µM; with MOLT-4 leukemia, greater than 100 µM; in the assay on K-562 leukemia, greater than 100 µM; in the assay with MALME-3M melanoma it was 88.9 µM; with OVCAR-4 ovarian, greater than 100 µM; in the assay on A498 renal, greater than 100 µM. In addition, the TGI in the assay on SR leukemia, with SNB-19 CNS, in the assay with MDA-MB-231 breast and with UACC-62 melanoma was greater than 100 µM each time.
As to `COc1ccccc1C[C@@H]1OC2(C=CC(=O)C=C2)O[C@H]1Cc1ccccc1OC`, the TGI in the assay on UO-31 renal is 12.7 µM; in the assay with MOLT-4 leukemia it was greater than 50 µM; in the assay with K-562 leukemia it was greater than 50 µM; in the assay on MALME-3M melanoma, 21.3 µM; in the assay on OVCAR-4 ovarian, 19.9 µM; in the assay with A498 renal it was 49.9 µM. Further, the TGI with SR leukemia was 13.1 µM; in the assay on SNB-19 CNS, 24.2 µM; in the assay with MDA-MB-231 breast, 38.6 µM; in the assay with UACC-62 melanoma it was 23.2 µM.
Consider `Cc1ccc2c(c1)C(=O)C(C1OC(=O)c3ccccc31)C2` (stereo not given), for which the TGI in the assay with UO-31 renal, in the assay with MOLT-4 leukemia, with K-562 leukemia, in the assay with MALME-3M melanoma, in the assay on OVCAR-4 ovarian and in the assay on A498 renal was greater than 100 µM throughout. For the same molecule, the TGI in the assay on SR leukemia, in the assay with SNB-19 CNS, with MDA-MB-231 breast and in the assay on UACC-62 melanoma was greater than 100 µM each time.
For the molecule `C[Si](C)(c1ccccc1)[C@H]1CCCC=C1CCNC1c2ccccc2CCc2ccccc21`, the TGI in the assay on UO-31 renal, with MOLT-4 leukemia, with K-562 leukemia, with MALME-3M melanoma, in the assay on OVCAR-4 ovarian and with A498 renal was greater than 100 µM throughout. For the same molecule, the TGI in the assay with SR leukemia, in the assay on SNB-19 CNS, in the assay with MDA-MB-231 breast and in the assay on UACC-62 melanoma was greater than 100 µM each time.
As for `CCCC(CCN)(CCN)[N+](=O)[O-]`, the TGI in the assay on UO-31 renal, in the assay with MOLT-4 leukemia, with K-562 leukemia, in the assay on MALME-3M melanoma, in the assay on OVCAR-4 ovarian and in the assay on A498 renal was greater than 100 µM throughout. Besides, the TGI in the assay with SR leukemia, with SNB-19 CNS, in the assay on MDA-MB-231 breast and in the assay on UACC-62 melanoma was greater than 100 µM each time.

These data come from PubChem BioAssay (NCI).
